The results in this text go back to patent US9828360B2 (Array BioPharma Inc., priority 2012, dated 2017).

The target in this assay is TrkA (Homo sapiens, UniProt P04629). Kind of assay: TrkA LanthaScreen Eu Kinase Binding Assay. The arrangement: 6HIS tagged cytoplasmic domain from Invitrogen, Cat. No. PV3144; purchased Invitrogen PV3144. Conditions: averaged IC50 values, read-out: TrkA Enzyme IC50. As to the method: TrkA binding activity was determined in a TrkA LanthaScreen™ Eu Kinase Binding Assay. 5 nM His-tagged recombinant human TrkA (6HIS tagged cytoplasmic domain from Invitrogen, Cat. No. PV3144) was incubated with 4 nM Alexa-Fluor® Tracer 236 (Invitrogen Cat. No. PV5592), 2 nM biotinylated anti-His (Invitrogen Cat. No. PV6090), and 2 nM europium-labeled Streptavidin (Invitrogen Cat. No. PV5899), in buffer (25 mM MOPS, pH 7.5, 5 mM MgCl2, 0.005% Triton X-100). Three fold serial dilutions of compounds of the invention in DMSO were added to a final percentage of 2% DMSO. After 60-minute incubation at 22° C., the reaction was measured using the EnVision mutlimode plate reader (PerkinElmer) via TR-FRET dual wavelength detection at […]. The percent of control was calculated using a ratiometric emission factor. The IC50 values were determined by fitting a four parameter model to the percent of control data.
TrkA, sequence (P04629 440-796 limits assumed): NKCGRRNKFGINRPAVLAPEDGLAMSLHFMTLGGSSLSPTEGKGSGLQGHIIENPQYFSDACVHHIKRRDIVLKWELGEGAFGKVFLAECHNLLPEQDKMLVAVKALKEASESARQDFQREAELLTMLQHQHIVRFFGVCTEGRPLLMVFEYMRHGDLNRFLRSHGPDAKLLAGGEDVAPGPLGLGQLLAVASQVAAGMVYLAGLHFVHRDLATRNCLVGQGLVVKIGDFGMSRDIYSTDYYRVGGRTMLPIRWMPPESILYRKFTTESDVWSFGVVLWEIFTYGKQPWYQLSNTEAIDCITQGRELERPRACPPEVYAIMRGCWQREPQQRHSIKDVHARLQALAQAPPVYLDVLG
Table A provides averaged IC50 values for compounds of the invention when tested in the assay of Example A, where A represents an averaged IC50 value <100 nM; and B represents an averaged IC50 value from 100 to 1,000 nM.
(In general: Time-resolved FRET reads energy transfer from a long-lived donor to a nearby acceptor.)
In the case of `COCCN1C[C@@H](NC(=O)Nc2cc(Br)cnc2-c2ccccc2)[C@H](c2ccccc2)C1` [Example 5, 1-(5-bromo-2-phenylpyridin-3-yl)-3-((3S,4R)-1-(2-methoxyethyl)-4-phenylpyrrolidin-3-yl)urea], the IC50 is < 100 nM. On to `COCCN1C[C@@H](NC(=O)Nc2ccc(-c3ccccc3)nc2C)[C@H](c2ccccc2)C1` [Example 8, 1-((3S,4R)-1-(2-methoxyethyl)-4-phenylpyrrolidin-3-yl)-3-(2-methyl-6-phenylpyridin-3-yl)urea], for which the IC50 lay in the range of 100 to 1000 nM. Regarding `COCCN1C[C@@H](NC(=O)Nc2sc(C(=O)OC)nc2-c2ccccc2)[C@H](c2ccc(F)c(F)c2)C1` [Example 49, methyl 5-(3-((3S,4R)-4-(3,4-difluorophenyl)-1-(2-methoxyethyl)pyrrolidin-3-yl)ureido)-4-phenylthiazole-2-carboxylate], the IC50 was 100 to 1000 nM. The figure for `COCCN1C[C@@H](NC(=O)Nc2c(-c3ccccc3)c(=O)n(C)n2C)[C@H](c2ccc(F)c(F)c2)C1` [Example 39, 1-((3S,4R)-4-(3,4-difluorophenyl)-1-(2-methoxyethyl)pyrrolidin-3-yl)-3-(1,2-dimethyl-5-oxo-4-phenyl-2,5-dihydro-1H-pyrazol-3-yl)urea] is < 100 nM. With `COCCN1C[C@@H](NC(=O)Nc2ccc(-c3ccccc3)nc2C)[C@H](c2ccc(F)c(F)c2)C1` [Example 9, 1-((3S,4R)-4-(3,4-difluorophenyl)-1-(2-methoxyethyl)pyrrolidin-3-yl)-3-(2-methyl-6-phenylpyridin-3-yl)urea], the half-maximal inhibitory concentration (IC50) fell in the range of 100 to 1000 nM.

For `COCCN1C[C@@H](NC(=O)Nc2sc(CO)nc2-c2ccccc2)[C@H](c2ccc(F)c(F)c2)C1` [Example 50], the IC50 is < 100 nM.

In the case of `COCCN1C[C@@H](NC(=O)Nc2ccn(C)c(=O)c2-c2ccccc2)[C@H](c2ccc(F)c(F)c2)C1` [Example 33, 1-((3S,4R)-4-(3,4-difluorophenyl)-1-(2-methoxyethyl)pyrrolidin-3-yl)-3-(1-methyl-2-oxo-3-phenyl-1,2-dihydropyridin-4-yl)urea], the concentration for half-maximal inhibition (IC50) is 100 to 1000 nM. In the case of `COCCN1C[C@@H](NC(=O)Nc2cc(OC)cnc2-c2ccccc2)[C@H](c2ccc(F)c(F)c2)C1` [Example 26, 1-((3S,4R)-4-(3,4-difluorophenyl)-1-(2-methoxyethyl)pyrrolidin-3-yl)-3-(5-methoxy-2-phenylpyridin-3-yl)urea], the IC50 is < 100 nM. For the molecule `COCCN1C[C@@H](NC(=O)Nc2ccc(-c3ccc(S(C)(=O)=O)cc3)nc2C)[C@H](c2ccc(F)c(F)c2)C1` [Example 17, 1-((3S,4R)-4-(3,4-difluorophenyl)-1-(2-methoxyethyl)pyrrolidin-3-yl)-3-(2-methyl-6-(4-(methylsulfonyl)phenyl)pyridin-3-yl)urea], the IC50 lay in the range of 100 to 1000 nM. The figure for `COCCN1C[C@@H](NC(=O)Nc2c(-c3ccccc3)nc(C)n2C)[C@H](c2ccc(F)c(F)c2)C1` [Example 38, 1-((3S,4R)-4-(3,4-difluorophenyl)-1-(2-methoxyethyl)pyrrolidin-3-yl)-3-(1,2-dimethyl-4-phenyl-1H-imidazol-5-yl)urea] is < 100 nM. The figure for `COCCN1C[C@@H](NC(=O)Nc2ccc(S(C)(=O)=O)nc2-c2ccccc2)[C@H](c2ccc(F)c(F)c2)C1` [Example 12, 1-((3S,4R)-4-(3,4-difluorophenyl)-1-(2-methoxyethyl)pyrrolidin-3-yl)-3-(6-(methylsulfonyl)-2-phenylpyridin-3-yl)urea] is < 100 nM; for `COCCN1C[C@@H](NC(=O)Nc2ccc(=O)[nH]c2-c2ccccc2)[C@H](c2ccc(F)c(F)c2)C1` [Example 20, 1-((3S,4R)-4-(3,4-difluorophenyl)-1-(2-methoxyethyl)pyrrolidin-3-yl)-3-(6-oxo-2-phenyl-1,6-dihydropyridin-3-yl)urea] it is < 100 nM. As to `COCCN1C[C@@H](NC(=O)Nc2ccc(C)nc2-c2ccccc2)[C@H](c2ccc(F)c(F)c2)C1` [Example 29, 1-((3S,4R)-4-(3,4-difluorophenyl)-1-(2-methoxyethyl)pyrrolidin-3-yl)-3-(6-methyl-2-phenylpyridin-3-yl)urea], the IC50 was < 100 nM. With `COCCN1C[C@@H](NC(=O)Nc2ccc(-c3cccnc3)nc2C)[C@H](c2ccc(F)c(F)c2)C1` [Example 14, 1-((3S,4R)-4-(3,4-difluorophenyl)-1-(2-methoxyethyl)pyrrolidin-3-yl)-3-(6-methyl-[2,3′-bipyridin]-5-yl)urea], the IC50 was < 100 nM. In the case of `COCCN1C[C@@H](NC(=O)Nc2ccc(S(=O)(=O)C3CC3)nc2-c2ccccc2)[C@H](c2ccc(F)c(F)c2)C1` [Example 22, 1-(6-(cyclopropylsulfonyl)-2-phenylpyridin-3-yl)-3-((3S,4R)-4-(3,4-difluorophenyl)-1-(2-methoxyethyl)pyrrolidin-3-yl)urea], the half-inhibitory concentration (IC50) is < 100 nM. Consider `COCCN1C[C@@H](NC(=O)Nc2sc(C(C)(C)O)nc2-c2ccccc2)[C@H](c2ccc(F)c(F)c2)C1` [Example 51, 1-((3S,4R)-4-(3,4-difluorophenyl)-1-(2-methoxyethyl)pyrrolidin-3-yl)-3-(2-(2-hydroxypropan-2-yl)-4-phenylthiazol-5-yl)urea], for which the IC50 was < 100 nM. The same measure for `COCCN1C[C@@H](NC(=O)Nc2cc(=O)n(C)nc2-c2ccccc2)[C@H](c2ccc(F)c(F)c2)C1` [Example 34, 1-((3S,4R)-4-(3,4-difluorophenyl)-1-(2-methoxyethyl)pyrrolidin-3-yl)-3-(1-methyl-6-oxo-3-phenyl-1,6-dihydropyridazin-4-yl)urea]: 100 to 1000 nM. Take `CCc1ccc(NC(=O)N[C@@H]2CN(CCOC)C[C@H]2c2ccc(F)c(F)c2)c(-c2ccccc2)n1` [Example 28, 1-((3S,4R)-4-(3,4-difluorophenyl)-1-(2-methoxyethyl)pyrrolidin-3-yl)-3-(6-ethyl-2-phenylpyridin-3-yl)urea]: the IC50 was < 100 nM. On to `COCCN1C[C@@H](NC(=O)Nc2ccc(OC)nc2-c2ccccc2)[C@H](c2ccc(F)c(F)c2)C1` [Example 16, 1-((3S,4R)-4-(3,4-difluorophenyl)-1-(2-methoxyethyl)pyrrolidin-3-yl)-3-(6-methoxy-2-phenylpyridin-3-yl)urea], for which the half-maximal inhibitory concentration (IC50) is < 100 nM. For the molecule `CCOc1ccc(NC(=O)N[C@@H]2CN(CCOC)C[C@H]2c2ccc(F)c(F)c2)c(-c2ccccc2)n1` [Example 25], the IC50 is < 100 nM. In the case of `CCn1c(=O)c(-c2ccccc2)c(NC(=O)N[C@@H]2CN(CCOC)C[C@H]2c2ccc(F)c(F)c2)n1C` [Example 40, 1-((3S,4R)-4-(3,4-difluorophenyl)-1-(2-methoxyethyl)pyrrolidin-3-yl)-3-(1-ethyl-2-methyl-5-oxo-4-phenyl-2,5-dihydro-1H-pyrazol-3-yl)urea], the IC50 is < 100 nM. Consider `COCCN1C[C@@H](NC(=O)Nc2ccc(Br)nc2-c2ccccc2)[C@H](c2ccc(F)c(F)c2)C1` [Example 11, 1-(6-bromo-2-phenylpyridin-3-yl)-3-((3S,4R)-4-(3,4-difluorophenyl)-1-(2-methoxyethyl)pyrrolidin-3-yl)urea], for which the IC50 was < 100 nM. For `COCCN1C[C@@H](NC(=O)Nc2ccc(C)nc2-c2ccccc2)[C@H](c2ccc(F)cc2)C1` [Example 32, 1-((3S,4R)-4-(4-fluorophenyl)-1-(2-methoxyethyl)pyrrolidin-3-yl)-3-(6-methyl-2-phenylpyridin-3-yl)urea], the IC50 is < 100 nM. `COCCN1C[C@@H](NC(=O)Nc2nc(-c3ccccc3)nn2C)[C@H](c2ccc(F)c(F)c2)C1` [Example 54, 1-((3S,4R)-4-(3,4-difluorophenyl)-1-(2-methoxyethyl)pyrrolidin-3-yl)-3-(1-methyl-3-phenyl-1H-1,2,4-triazol-5-yl)urea]: the IC50 lay within 100 to 1000 nM.

One may read the IC50 as the concentration at which inhibition is half-maximal.
